The source of these data is patent US6503542B2, “Herbal compositions for treating immunological disorders” (GloboAsia, L.L.C., priority 2000, dated 2003).

What all share (type): in vivo, BALB/c mice
Common to all, as to conditions: FIG. 10; comparison with conventional asthma drugs

In assay [1] the test system is IgE. In words: ELISA determination of Der p 5-specific IgE in serum of Der p 5 sensitized mice. The text has this:
(§1) The effects of the STA-36 and STA-4 herbal composition as well as individual herbs on suppression of allergen-induced immunoglobulin G (IgG), immunoglobulin E (IgE), interleukin-4 (IL-4), and interferon γ (IFN-γ) were investigated using BALB/c mice sensitized with D.P. (Dermatophagoides pteronyssimus) allergen “Der p 5”. Dermatophagoides pteronyssimus is the house dust mite which acts as an antigen and produces an allergic asthmatic reaction in atopic person.
(§2) Female BALB/c mice aged between 4 and 6 weeks and weighed about 20 g were obtained from the National Animal-breeding Center, Republic of China and used in the studies. Mice were age- and sex- matched for each experiment.
(§3) BALB/c mice were initially intraperitoneally sensitized with 10 μg of Dermatophagoides pteronyssimus group 5 (“Der p 5”) allergen and 4 mg of aluminium hydroxide (Wyeth Pharmaceuticals, Punchbowl, Australia). Seven (7) days after the first sensitization, mice, except the placebo control group, were fed with STA-36 and STA-4 herbal compositions until the end of the twenty-first day.
(§4) At the end of the twenty first day, the mice were given a second booster injection of Der p 5. Forty eight (48) hours after the second booster injection, mice were placed in a round plastic container where the mice were further challenged by 0.1% Der p 5 spray.
(§5) Several hours after the challenge, the mouse was anaesthetized using 100 mg/ml phenobarbital. […]
(§6) The amount of Der p 5-specific IgG and IgE were determined by Enzyme Linked Immunosorbent Assay (ELISA). […]
(§7) Avidin-alkaline phosphatase (1:1000) (Strptavidin-AP, PharMinge 13043E) was then added and incubated for 1 hour at 25° C., followed by six (6) washes. […] Plates were read in a microplate autoreader (ELISA reader, Dynex MRX) at 405 nm. Readings were referenced to commercial isotypes standards which were mouse anti-TNP mAb, IgG1 (107.3), IgG2a (G155-178), and IgE (IgE-3).
(§8) All of the data contained in the experiments were calculated as “mean±SEM.” Trachea resistance change induced by acetylcholine after converted to PC 100 was measured as μg/kg. […]
(In general: ELISA stands for enzyme-linked immunosorbent assay.)

Assay [2] has as its system IgG2a. Nature of the assay: ELISA determination of Der p 5-specific IgG (IgG2a) in serum of Der p 5 sensitized mice.
From the text: as §1, §2, §3, §4, §5, §6, §7, §8

Assay [3] concerns IL-4. In words: ELISA determination of IL-4 in fluid of pulmonary alveoli of Der p 5 sensitized mice.
From the text: as §1, §2, §3, §4
(§9) Several hours after the challenge, the mouse was anaesthetized using 100 mg/ml phenobarbital. Blood was collected from the tail vein or heart. […]
(§10) One hundred (100) μl of the supernatant from the fluid of pulmonary alveoli were then added to the microwells, together with cytokine standard solution, for overnight reaction at 4° C. […] Plates were read in a microplate autoreader (ELISA reader, Dynex MRX) at 405 nm.
as §8

Assay [4] concerns IFN-γ. In words: ELISA determination of IFN-γ in fluid of pulmonary alveoli of Der p 5 sensitized mice.
From the text: as §1, §2, §3, §4, §9, §10, §8

Turning to `C[C@]12C=CC(=O)C=C1CC[C@@H]1[C@@H]2[C@@H](O)C[C@@]2(C)[C@H]1CC[C@]2(O)C(=O)CO` [prednisolone], in assay [1], the “effect on IgE vs control” value is reported as “only STA-4 demonstrated significant decreased in IgE”. In addition, in assay [2], the “effect on IgG (IgG2a) vs control” value is “only STA-4 demonstrated significant decreased in IgE and significant increase in IgG”. Further, in assay [3], the “effect on IL-4 vs control” value is “only STA-4 demonstrated significant decreased in IgE and significant increase in IgG, IL-4”. The “effect on IFN-γ vs control” value in assay [4] was “only STA-4 demonstrated significant decreased in IgE and significant increase in IgG, IL-4, and IFN-γ”.

On to `CN1CCC(=C2c3ccccc3CC(=O)c3sccc32)CC1` [ketotifen], for which the “effect on IgE vs control” value in assay [1] is “only STA-4 demonstrated significant decreased in IgE”. In addition, the “effect on IgG (IgG2a) vs control” value in assay [2] is “only STA-4 demonstrated significant decreased in IgE and significant increase in IgG”. Further, the “effect on IL-4 vs control” value in assay [3] is “only STA-4 demonstrated significant decreased in IgE and significant increase in IgG, IL-4”. In assay [4], the “effect on IFN-γ vs control” value is “only STA-4 demonstrated significant decreased in IgE and significant increase in IgG, IL-4, and IFN-γ”.

For `Cn1c(=O)c2[nH]cnc2n(C)c1=O.Cn1c(=O)c2[nH]cnc2n(C)c1=O.NCCN` [aminophline], the “effect on IgE vs control” value in assay [1] is recorded as “only STA-4 demonstrated significant decreased in IgE”. Also, the “effect on IgG (IgG2a) vs control” value in assay [2] was “only STA-4 demonstrated significant decreased in IgE and significant increase in IgG”. Moreover, the “effect on IL-4 vs control” value in assay [3] is “only STA-4 demonstrated significant decreased in IgE and significant increase in IgG, IL-4”. Besides, the “effect on IFN-γ vs control” value in assay [4] is “only STA-4 demonstrated significant decreased in IgE and significant increase in IgG, IL-4, and IFN-γ”.
